Assays:
AKR-2B cells = assay: Smad3-regulated biological responses: scratch assays and soft agar colony formation; assay type: cell-based; conditions: FIGS. 4C and 4D: scratch assay (5 ng/mL TGFβ, 24 hours) and soft agar
Method: FIGS. 4A-E. A point mutant of TAT-SH3-2 abolishes the inhibitory action on Smad3 responses. (A) Schematic depicting TAT-SNX9(SH3) fusion polypeptide constructs (Left). * in SH3-2M (mutant) reflects G to V mutations at amino acids 36-38. His pull down of pSmad3 bound to TAT-SNX9(SH3) fusion polypeptides was performed as in FIG. 3A (Middle). AKR-2B cells were transduced for 90 minutes with 1.5 μM of TAT-SH3-2, TAT-SH3-2M, or TAT-LC. Western analysis was performed for the indicated proteins following 24 hour treatment in the absence (−) or presence (+) of TGFβ (5 ng/mL) or SB431542 (10 μM) (Right). (B) qPCR of Smad3 (CTGF and Smad7) and Smad2 (Goosecoid and MixL) responsive genes as in FIG. 3D. Data reflect mean+/−sd from three experiments. […] (E) AKR-2B cells were transiently transfected with a BMP (BRE), EGF (SRE), or PDGF (MMP-1) reporter construct and luciferase activity determined following 12 hour incubation in the absence (−) or presence (+) of the indicated ligand (10 ng/mL BMP4, EGF, or PDGF), inhibitor (10 μM Dorsomophin; 3 μM Lapatinib; 2 μM CP868) or TAT-SNX9(SH3) fusion polypeptide (1.5 μM). […]
Soft agar assays were performed as described elsewhere (Rahimi et al., Cancer Res., 69(1):84-93 (2009)). […] Following 7 days growth at 37° C., the number of colonies>100 μm in diameter were counted using an Optronix Gelcount™ (Oxford Optronics, Milton, Abingdon, UK). […]

[1] = test system: Smad2 targets (MMP2, Goosecoid, Furin, MixL); assay: RT-PCR/qPCR of Smad2 responsive genes in AKR-2B cells; assay type: cell-based; conditions: 5 ng/mL TGFβ, 24 hours
Method: FIGS. 2A-C. TAT-SH3 inhibits Smad3-dependent responses. (A) AKR-2B cells were transiently transfected with a Smad3 (3TP), Smad2 (ARE), or Smad1/5/8 (BRE) reporter construct, and luciferase activity determined following 12 hours incubation in the absence (−) or presence (+) of the indicated ligand (5 ng/mL TGFβ; 10 ng/mL BMP4) or TAT-SNX9(SH3) fusion polypeptide (1.5 μM). Data represent the mean+/−SEM of three experiments. (B) RT-PCR analysis of Smad3 (PAI-1 and CTGF) and Smad2 (MMP2) responsive gene following 24 hour treatment of AKR-2B cells with the indicated concentration of TAT-SNX9(SH3) fusion polypeptide or 5 ng/mL TGFβ. Loading was verified by GAPDH expression. (C) Soft agar colony formation was performed following seven days growth in the presence (+) or absence (−) of TGFβ (10 ng/mL) or the indicated TAT-SNX9(SH3) fusion polypeptide (1.5 μM). […]
FIGS. 3A-E. Inhibition of Smad3 signaling by a defined region of the SH3 domain in SNX9. […] (B) Nuclear fractions were prepared and assessed as in FIG. 1B following transduction with the indicated TAT-SNX9(SH3) fusion polypeptide (Left). Quantitation (mean+/−sd) of nuclear pSmad2 or pSmad3 from 2 experiments (Right). (C) Immunofluorescence of nuclear Smad3 was determined as in FIG. 1C from 30 cells in each of two experiments in the absence (−) or presence (+) of 5 ng/mL TGFβ and the indicated TAT-SNX9(SH3) fusion polypeptide (1.5 μM). […]

pSmad3 = target: T1, pSmad3 (Mus musculus, UniProt Q8BUN5); assay: His pull down of pSmad3 by TAT-SNX9(SH3) fusion polypeptides; assay type: binding; conditions: lysates of TGFβ treated AKR-2B cultures
T1 construct: endogenous in cells; host or cells: AKR-2B cells
Method: FIGS. 3A-E. Inhibition of Smad3 signaling by a defined region of the SH3 domain in SNX9. (A) Cartoon depicting constructs used for His pull down assays. AKR-2B lysates were incubated with the indicated TAT-SNX9(SH3) fusion polypeptide and immunoblotted for bound pSmad3 or total TAT-SNX9(SH3) fusion polypeptide (His). (B) Nuclear fractions were prepared and assessed as in FIG. 1B following transduction with the indicated TAT-SNX9(SH3) fusion polypeptide (Left). Quantitation (mean+/−sd) of nuclear pSmad2 or pSmad3 from 2 experiments (Right). (C) Immunofluorescence of nuclear Smad3 was determined as in FIG. 1C from 30 cells in each of two experiments in the absence (−) or presence (+) of 5 ng/mL TGFβ and the indicated TAT-SNX9(SH3) fusion polypeptide (1.5 μM). […]
FIGS. 4A-E. A point mutant of TAT-SH3-2 abolishes the inhibitory action on Smad3 responses. […] (E) AKR-2B cells were transiently transfected with a BMP (BRE), EGF (SRE), or PDGF (MMP-1) reporter construct and luciferase activity determined following 12 hour incubation in the absence (−) or presence (+) of the indicated ligand (10 ng/mL BMP4, EGF, or PDGF), inhibitor (10 μM Dorsomophin; 3 μM Lapatinib; 2 μM CP868) or TAT-SNX9(SH3) fusion polypeptide (1.5 μM). […]

T1 sequence (Q8BUN5 whole entry, the tested form may be a part): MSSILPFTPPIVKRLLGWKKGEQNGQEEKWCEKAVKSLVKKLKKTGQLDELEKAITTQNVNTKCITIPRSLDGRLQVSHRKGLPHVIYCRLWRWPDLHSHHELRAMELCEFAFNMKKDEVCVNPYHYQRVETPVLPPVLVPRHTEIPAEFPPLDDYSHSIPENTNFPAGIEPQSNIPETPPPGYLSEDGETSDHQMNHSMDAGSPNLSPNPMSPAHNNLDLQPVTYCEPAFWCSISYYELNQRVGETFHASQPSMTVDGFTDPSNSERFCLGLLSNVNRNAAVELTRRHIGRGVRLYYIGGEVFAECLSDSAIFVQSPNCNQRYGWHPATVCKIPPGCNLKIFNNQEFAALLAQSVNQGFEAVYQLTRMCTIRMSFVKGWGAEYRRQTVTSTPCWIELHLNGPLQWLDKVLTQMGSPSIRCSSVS

Substance | Smad3-regulated biological responses (AKR-2B cells) | induction of Smad2 targets [1] | pSmad3 binding (pSmad3)
TAT-SH3-2M: TAT-SH3-2 with G to V point mutations at amino acids 36-38; inactive TAT-SNX9 peptide unable to bind pSmad3 (TVNEGEIITITNPDVVVVWLEGRNIKGERGL; left off: small tags and cut ends) | not inhibitory | Neither polypeptide impacted the induction of Smad2 targets | unable to bind pSmad3
TAT-SH3-2: TAT-SNX9(SH3) fusion polypeptide having SNX9 amino acids 21-51 (31 mer) (TVNEGEIITITNPDVGGGWLEGRNIKGERGL; left off: small tags and cut ends) | inhibitory | Neither polypeptide impacted the induction of Smad2 targets | bound pSmad3 to a similar degree as a TAT-SNX9(SH3) fusion polypeptide having the full length SH3 domain
